Source: patent US20260308172A1, “TRICYCLIC COMPOUNDS FOR TREATMENT OF BACTERIAL INFECTIONS” (priority 2023, published 2026)
Values after ≈ are worked out from the molar mass of the structure shown.

What was measured:
[1] = system: Klebsiella pneumonia ATCC 43816; test: Minimal Inhibitory Concentration (MIC) assay, Klebsiella pneumonia ATCC 43816; assay type: cell-based; settings: Klebsiella pneumoniae, ATCC43816, 20 h, read-out: MIC Klebsiella pneumoniae ATCC43816
Method: (§1) The antibacterial activity of the compounds of the present invention was evaluated against the commonly used quality control strain Escherichia coli ATCC 25922 and the rifampin-resistant mutant strain Klebsiella pneumonia ATCC 43816. Both were originally derived from human clinical samples and are available from ATCC (American Type Culture Collection). The in vitro potency of compounds to inhibit Escherichia coli (ATCC 25922) and Klebsiella pneumonia (ATCC 43816) growth was assessed by the MIC (Minimal Inhibitory Concentration) broth dilution method. Specifically compound dilutions were prepared from 10 mM DMSO stock solutions as follows: i) serial 2-fold dilution in 20 μL DMSO were prepared in a master plate (Greiner, Cat No: 651201), ii) 180 μL sterile distilled water was added to each aliquot and iii) 10 μL diluted compounds were transferred into a new assay plate (Costar, 3599).
(§2) Vials of each test microorganisms were maintained frozen in the vapor phase of a liquid nitrogen freezer. Single-use frozen vials of the two strains Escherichia coli ATCC 25922 (KWIKSTIK, 0335K) and Klebsiella pneumonia ATCC 43816, with predetermined CFU/mL, were taken out from the freezer, thawed at room temperature, and diluted in Cation-Adjusted Mueller Hinton Broth (CAMHB) to achieve a final inoculum of 5×10^5 CFU/mL. 90 μL bacteria containing broth was dispensed to the assay plate containing the pre-dispensed compound dilutions and mixed by pipetting 5 times.
(§3) Then the assay plates were incubated for 20 hours at 35° C. in ambient air. Following incubation, the MIC (μg/mL), the lowest concentration of drug that inhibits visible growth of the microorganism was read with the help of a magnification mirror and recorded.

[2] = system: Escherichia coli ATCC 25922; test: Minimal Inhibitory Concentration (MIC) assay, Escherichia coli ATCC 25922; assay type: cell-based; settings: ATCC25922, 20 h, read-out: MIC Escherichia coli ATCC25922
Method: as §1, §2, §3

[3] = Human Microsome Stability Assay; assay type: in vitro ADME; settings: 1 μM compound, 0.5 mg/mL liver microsomal protein, 1 mM NADPH, pH 7.4, 37° C., 0-30 minutes; for CLint scaled at 1 µM: human, liver microsomes, read-out: Clearance of Human microsome
Method: The human microsomal stability assay is used for early assessment of metabolic stability of compounds of present invention in human liver microsomes. Human liver microsomes (Cat. NO.: 452117, Corning, USA) were pre-incubated with test compound for 10 minutes at 37° C. in 100 mM potassium phosphate buffer, pH 7.4. The reactions were initiated by adding NADPH regenerating system. The final incubation mixtures contained 1 μM compound, 0.5 mg/mL liver microsomal protein, 1 mM MgCl2 and 1 mM NADPH in 100 mM potassium phosphate buffer, pH 7.4. After incubation times of 0, 3, 6, 9, 15 and 30 minutes at 37° C., 300 μL of cold acetonitrile (including internal standard) was added to 100 μL incubation mixture to terminate the reaction. Following precipitation and centrifugation, the amount of compound remaining in the samples were determined by LC-MS/MS. Controls of no NADPH regenerating system at zero and 30 minutes were also prepared and analyzed.

SMILES | MIC [1] [µg/mL] | MIC [2] [µg/mL] | Clearance of Human microsome [3] [mL/min/kg] | CLint scaled at 1 µM [3] [mL/min/kg]
O=C1O[C@@H](CO)[C@H]2COc3cc(S(=O)(=O)N4CCN(c5cc(C(F)(F)C6CC7(CNC7)C6)cc(Cl)n5)CC4)ccc3N12 [Example 039, (3R,3aR)-7-[4-[4-[2-azaspiro[3.3]heptan-6-yl(difluoro)methyl]-6-chloro-2-pyridyl]piperazin-1-yl]sulfonyl-3-(hydroxymethyl)-3a,4-dihydro-3H-oxazolo[4,3-c][1,4]benzoxazin-1-one] | 1.16 (≈ 1.85 µM) | 0.87 (≈ 1.39 µM) | 6.2 | 
NC[C@H]1OC(=O)N2c3ccc(S(=O)(=O)N4CCN(c5cc(C(F)(F)F)cc(Cl)n5)CC4)cc3OC[C@@H]12 (relative stereo) [Example 007] | 0.91 (≈ 1.66 µM) | 0.46 (≈ 0.84 µM) |  | 9.6
O=C1O[C@@H](CO)[C@H]2COc3cc(S(=O)(=O)N4CCN(c5cc(C(F)(F)C6CNC6)cc(Cl)n5)CC4)ccc3N12 [Example 035, (3R,3aR)-7-[4-[4-[azetidin-3-yl(difluoro)methyl]-6-chloro-2-pyridyl]piperazin-1-yl]sulfonyl-3-(hydroxymethyl)-3a,4-dihydro-3H-oxazolo[4,3-c][1,4]benzoxazin-1-one] | 2.19 (≈ 3.74 µM) | 2.2 (≈ 3.75 µM) |  | 10.9
NCCCNC(=O)/C=C/C(F)(F)c1cc(Cl)nc(N2CCN(S(=O)(=O)c3ccc4c(c3)OC[C@@H]3[C@H](CO)OC(=O)N43)CC2)c1 [Example 044, (E)-4-[2-[4-[[(3R,3aR)-3-(hydroxymethyl)-1-oxo-3a,4-dihydro-3H-oxazolo[4,3-c][1,4]benzoxazin-7-yl]sulfonyl]piperazin-1-yl]-6-chloro-4-pyridyl]-N-(3-aminopropyl)-4,4-difluoro-but-2-enamide] | 2.41 (≈ 3.67 µM) | 2.4 (≈ 3.65 µM) |  | 7
NC1CCC(Oc2cc(Cl)nc(N3CCN(S(=O)(=O)c4ccc5c(c4)OC[C@@H]4[C@H](CO)OC(=O)N54)CC3)c2)CC1 (stereo partly drawn) [Example 042, (3R,3aR)-7-[4-[4-(4-aminocyclohexoxy)-6-chloro-2-pyridyl]piperazin-1-yl]sulfonyl-3-(hydroxymethyl)-3a,4-dihydro-3H-oxazolo[4,3-c][1,4]benzoxazin-1-one] | 2.21 (≈ 3.72 µM) | 2.2 (≈ 3.7 µM) |  | 6.7
NCCCNC(=O)[C@H]1CC[C@H](C(F)(F)c2cc(Cl)nc(N3CCN(S(=O)(=O)c4ccc5c(c4)OC[C@H]4[C@H](CO)OC(=O)N54)CC3)c2)CC1 [Example 049, 4-[[2-[4-[[(3R,3aS)-3-(hydroxymethyl)-1-oxo-3a,4-dihydro-3H-oxazolo[4,3-c][1,4]benzoxazin-7-yl]sulfonyl]piperazin-1-yl]-6-chloro-4-pyridyl]-difluoro-methyl]-N-(3-aminopropyl)cyclohexanecarboxamide] | 0.29 (≈ 0.407 µM) | 0.3 (≈ 0.421 µM) | 6.2 | 
NC[C@H]1OC(=O)N2c3ccc(S(=O)(=O)N4CCN(c5cc(C(F)(F)C6CCCNC6)cc(Cl)n5)CC4)cc3OC[C@H]12 (relative stereo) [Example 009] | 0.66 (≈ 1.08 µM) | 0.66 (≈ 1.08 µM) | 6.2 | 
NCCC(=O)N1CCC(C(F)(F)c2cc(Cl)nc(N3CCN(S(=O)(=O)c4ccc5c(c4)OC[C@@H]4[C@H](CO)OC(=O)N54)CC3)c2)CC1 [Example 054, (3R,3aR)-7-[4-[4-[[1-(3-aminopropanoyl)-4-piperidyl]-difluoro-methyl]-6-chloro-2-pyridyl]piperazin-1-yl]sulfonyl-3-(hydroxymethyl)-3a,4-dihydro-3H-oxazolo[4,3-c][1,4]benzoxazin-1-one] | 0.62 (≈ 0.905 µM) | 0.62 (≈ 0.905 µM) |  | 6.4
O=C1O[C@H](CO)[C@@H]2COc3cc(S(=O)(=O)N4CCN(c5cc(C(F)(F)C6CCNCC6)cc(Cl)n5)CC4)ccc3N12 [Example 029, (3S,3aS)-7-[4-[6-chloro-4-[difluoro(4-piperidyl)methyl]-2-pyridyl]piperazin-1-yl]sulfonyl-3-(hydroxymethyl)-3a,4-dihydro-3H-oxazolo[4,3-c][1,4]benzoxazin-1-one] | 1.14 (≈ 1.85 µM) | 1.1 (≈ 1.79 µM) |  | 11.6
O=C1O[C@@H](CO)[C@@H]2COc3cc(S(=O)(=O)N4CCN(c5cc(C(F)(F)C6CCNCC6)cc(Cl)n5)CC4)ccc3N12 [Example 038, (3R,3aS)-7-[4-[6-chloro-4-[difluoro(4-piperidyl)methyl]-2-pyridyl]piperazin-1-yl]sulfonyl-3-(hydroxymethyl)-3a,4-dihydro-3H-oxazolo[4,3-c][1,4]benzoxazin-1-one] | 0.57 (≈ 0.928 µM) | 0.57 (≈ 0.928 µM) |  | 11.1
NC(=O)C[N+]1(CCNC(=O)[C@H]2CC[C@H](C(F)(F)c3cc(Cl)nc(N4CCN(S(=O)(=O)c5ccc6c(c5)OC[C@@H]5[C@H](CO)OC(=O)N65)CC4)c3)CC2)CCCC1.[Cl-] [Example 063, 4-[[2-[4-[[(3R,3aR)-3-(hydroxymethyl)-1-oxo-3a,4-dihydro-3H-oxazolo[4,3-c][1,4]benzoxazin-7-yl]sulfonyl]piperazin-1-yl]-6-chloro-4-pyridyl]-difluoro-methyl]-N-[2-[1-(2-amino-2-oxo-ethyl)pyrrolidin-1-ium-1-yl]ethyl]cyclohexanecarboxamide; chloride] | 2.01 | 2 |  | 10.2
NCC(=O)N1CCC(C(F)(F)c2cc(Cl)nc(N3CCN(S(=O)(=O)c4ccc5c(c4)OC[C@@H]4[C@H](CO)OC(=O)N54)CC3)c2)CC1 [Example 053, (3R,3aR)-7-[4-[4-[[1-(2-aminoacetyl)-4-piperidyl]-difluoro-methyl]-6-chloro-2-pyridyl]piperazin-1-yl]sulfonyl-3-(hydroxymethyl)-3a,4-dihydro-3H-oxazolo[4,3-c][1,4]benzoxazin-1-one] | 0.61 (≈ 0.909 µM) | 0.61 (≈ 0.909 µM) |  | 12.2
NCCCNC(=O)[C@H]1CC[C@H](C(F)(F)c2cc(Cl)nc(N3CCN(S(=O)(=O)c4ccc5c(c4)OC[C@@H]4[C@H](CN)OC(=O)N54)CC3)c2)CC1 (stereo in doubt) [Example 047, 4-[[2-[4-[[cis-3-(aminomethyl)-1-oxo-3a,4-dihydro-3H-oxazolo[4,3-c][1,4]benzoxazin-7-yl]sulfonyl]piperazin-1-yl]-6-chloro-4-pyridyl]-difluoro-methyl]-N-(3-aminopropyl)cyclohexanecarboxamide] | 0.59 (≈ 0.828 µM) | 0.58 (≈ 0.814 µM) |  | 7
NC1CCC(Oc2cc(Cl)nc(N3CCN(S(=O)(=O)c4ccc5c(c4)OCC4C(N)CC(=O)N54)CC3)c2)CC1 (stereo not drawn) [Example 043, 3-Amino-7-[4-[4-(4-aminocyclohexoxy)-6-chloro-2-pyridyl]piperazin-1-yl]sulfonyl-2,3,3a,4-tetrahydropyrrolo[2,1-c][1,4]benzoxazin-1-one] | 8.64 (≈ 15 µM) | 4.3 (≈ 7.45 µM) | 6.2 | 
O=C1O[C@@H](CO)[C@H]2COc3cc(S(=O)(=O)N4CCN(c5cc(C(F)(F)C6C7CNCC76)cc(Cl)n5)CC4)ccc3N12 (stereo partly drawn) [Example 034, (3R,3aR)-7-[4-[4-[3-azabicyclo[3.1.0]hexan-6-yl(difluoro)methyl]-6-chloro-2-pyridyl]piperazin-1-yl]sulfonyl-3-(hydroxymethyl)-3a,4-dihydro-3H-oxazolo[4,3-c][1,4]benzoxazin-1-one] | 0.57 (≈ 0.931 µM) | 0.28 (≈ 0.457 µM) |  | 12.7
Cc1cc(C(F)(F)F)nc(N2CCN(S(=O)(=O)c3ccc4c(c3)OC[C@H]3[C@@H](CN5CC(CN)C5)OC(=O)N43)CC2)n1 [Example 026, (3R,3aS)-3-[[3-(aminomethyl)azetidin-1-yl]methyl]-7-[4-[4-methyl-6-(trifluoromethyl)pyrimidin-2-yl]piperazin-1-yl]sulfonyl-3a,4-dihydro-3H-oxazolo[4,3-c][1,4]benzoxazin-1-one] | 1.67 (≈ 2.79 µM) | 1.1 (≈ 1.84 µM) |  | 10.8
